Source: patent US6815450B2, “Axon regeneration with PKC inhibitors” (Children's Medical Center Corporation, priority 2002, dated 2004)
Counter-ions that a name gives are not always drawn. Values belong to the compound of their own block, whether it stands above or below them. Residues, ends and D or L forms follow the SMILES beside them. *: point of attachment. Cbz = O=C(OCc1ccccc1)*; CH2F = FC*

Tests used:
[1] = tested on: CGNs on MAG, Nogo-A and OMgp; assay: neurite outgrowth on individual myelin inhibitors; format: cell-based, rat
Experimental: […] Based on their structure and substrate requirements, PKC isoforms can be divided into three classes: the Ca++ and second messenger diacylglycerol (DAG)-sensitive conventional PKCs (-α, -β, and -γ), the Ca++-independent but DAG-dependent novel PKCs (-δ, -ε, -η, -θ, and -μ), and the Ca++- and DAG-insensitive atypical PKCs (-ζ and -λ). […] These inhibitors included Chelerythrine, Calphostin, Bisindoleylmaleimide I, and Gö6976. Dose response experiments (in the range of 10 nM to 10 uM) were carried out for each PKC inhibitor.

[2] = tested on: CGNs, DRG sensory neurons or NG108 cells on immobilized CNS myelin; assay: neurite outgrowth assay on CNS myelin substrate; format: cell-based, rat; settings: for neurite outgrowth on immobilized CNS myelin: P7-9 rat CGNs and DRG sensory neurons; for neurite outgrowth on a CNS myelin substrate: 100 nM
Experimental: (§1) To assess the functional relevance of the activation of the PI3K, MEK and PLC-g pathways, we utilized a standard neurite outgrowth assay in which NG108 cells or cerebellar granule neurons (CGN) from postnatal day 7-9 (P7-9) rats were grown on immobilized recombinant MAG or myelin (5-10, 16). Pharmacological inhibitors of the individual pathways—LY294002 and wortmannin for PI3K, U0126 for MEK, and U73122 for PLC-g, were then added to assess whether and to what extent these inhibitors could overcome the inhibitory activity of MAG or of myelin. […] As MEK has been previously shown to be required for axon growth induced by chronic exposure to neurotrophins (14), but not for growth cone turning in acute responses to NGF gradients (12), our results of abolishing MAG inhibition by an MEK inhibitor imply that the MEK pathway can be required only for neurite outgrowth in response to external cues.
Based on the modulation of neurite outgrowth by modulating PKC activity, we predicted that inhibiting PKC activity might abolish or convert the inhibitory responses of neurons to MAG and other myelin-associated inhibitors. […] Based on existing evidence for the functional interactions between the PKA and PKC pathways (24), we conclude that both PKA and PKC act through parallel mechanisms in affecting neurite outgrowth. Although many PKC isoforms are expressed in the nervous system (25), our observations with phorbol ester and selective PKC inhibitors indicate the involvement of at least classical PKC isoforms whose activation is dependent on diacylglycerol (DAG) and calcium (24).
Screening for compounds that allow neurite outgrowth from postnatal day 7-9 rat cerebellar granule neurons (CGNs) on CNS myelin substrates, we identified several broad-specificity PKC inhibitors from a small molecule libraries. Based on their structure and substrate requirements, PKC isoforms can be divided into three classes: the Ca++ and second messenger diacylglycerol (DAG)-sensitive conventional PKCs (-α, -β, and -γ), the Ca++-independent but DAG-dependent novel PKCs (-δ, -ε, -η, -θ, and -μ), and the Ca++- and DAG-insensitive atypical PKCs (-ζ and -λ). We first examined PKC inhibitors with a higher specificity for the conventional class of PKC isotypes for their ability to promote neurite outgrowth on CNS myelin. These inhibitors included Chelerythrine, Calphostin, Bisindoleylmaleimide I, and Gö6976. Dose response experiments (in the range of 10 nM to 10 uM) were carried out for each PKC inhibitor.

[3] = target: protein kinase C; settings: cited from earlier work
[4] = tested on: NG108 cells and CGNs; assay: toxicity to cultured neuronal cells; format: cell-based, rat; settings: even at 100 nM
Experimental: as §1

[5] = tested on: NG108 cells and CGNs transfected with Akt forms; assay: neurite outgrowth of Akt-transfected cells; format: cell-based, rat; parameters: effect on pro-growth effect of dominant negative Akt / cell survival / process extension of constitutively active Akt expressing NG108 cells: unit of the concentration uncertain
From the text: Having determined that the PI3K pathway is both activated and required in MAG signaling, we next examined whether Akt, a major downstream effector of PI3K in promoting cell survival (13, 17) and in determining the directionality of cell movement during chemotaxis (18), could account for the neurite inhibitory effect of MAG. To this end, we transfected NG108 cells with three versions of the Akt product—a constitutive active, a dominant negative and a wild type form (19), and compared their effects on neurite outgrowth.
Since Akt has been thought of as a positive regulator of neurite outgrowth (21), our results with over-expression of constitutively active Akt came as a surprise. […] However, expression of dominant negative Akt led to the death of the transfected CGNs, consistent with a critical role of Akt in promoting cell survival (13, 17 and 19). Thus, the neurite outgrowth response elicited by Akt activation differs in a cell type specific manner.
Growth cone responses can be converted from attraction to repulsion and vice versa through the modification of cellular cyclic nucleotide levels (12, 16, 23). […] As the PLCg pathway is activated by MAG and PKC is a major effector of PLCg (15), we assessed whether changes in PKC activity could affect the activity of different forms of Akt in NG-108 cells on the PDL substrate.

[6] = tested on: dorsal column ascending axons; assay: dorsal column axonal regeneration after C3-4 spinal dorsal hemisection; format: in vivo, adult rats
Experimental: To assess the contribution of PKC mediated inhibitory effects on axon regeneration in vivo, we examined whether intrathecal infusion of Gö6976 affected regeneration of dorsal column ascending axons following spinal cord dorsal hemisection in adult rats. The hemisection was performed between the 3rd and 4th cervical spinal segments (C3-4) to a depth of 1.6 mm from the dorsal surface of the cord using a VibraKnife device that can be used to precisely control the lesion depth stereotaxically. To ensure that bilateral dorsal columns were completely transected, the lesion was advanced ventrally to the level of central cannel resulting in the transection of the entire dorsal half of the spinal cord. After the lesion, dura mater was sutured to restore cerebespinal fluid circulation and to prevent connective tissue invasion. Intrathecal delivery of Gö6976 (20 uM) or saline vesicle into the lesion site was achieved by constant infusion of the compound at a rate of 0.5 ul/hr for 14 days using an Alzet mini-osmotic pump (Model 2002). Five weeks after surgery, a narrow lesion gap through the dorsal half of the cord was clearly seen, confirming the completeness of dorsal column transection. […] Anatomical regeneration of injured dorsal column axons was assessed by anterograde tracing of Cholera toxin B subunit (CTB) which was injected into bilateral sciatic nerves and brachial plexuses.

[7] = tested on: RhoA; assay: RhoA pull down assay in stimulated CGNs; format: cell-based, rat; settings: cultured CGNs
From the text: We also assessed whether individual inhibitors affect endogenous PKC activity in treated neurons. […] To further confirm the role of PKC as a direct signaling mediator, we examined whether PKC activation by myelin inhibitors is dependent on NgR, a required receptor component for all of the three major myelin inhibitors. Thus, we used recombinant retroviruses to overexpress full-length or dominant negative NgR in CGNs and examined PKC activation in these transduced neurons by NgR ligands. […] An additional and critical signaling event shared by these inhibitory activities is the activation of the small GTPase RhoA. In order to determine the relationship between PKC and RhoA in these pathways, we stimulated cultured CGNs with MAG-Fc, AP-Nogo-66 or CSPG in the presence or absence of Gö6976 and examined the RhoA activation in these conditions by subjecting the resulting cell lysates to a RhoA pull down assay. […] Thus, conventional PKCs participate in transducing the inhibitory signals of both myelin inhibitors and CSPG from their specific cell surface receptors to activate RhoA.

[8] = tested on: P7 rat CGNs injected into the ventral funiculus of the adult rat spinal cord; assay: intra white matter transplantation of CGNs; format: in vivo; settings: two weeks after transplantation; CGNs pretreated with 50 nM
Experimental: We thus injected vehicle or Gö6976-treated P7 rat CGNs into the ventral funiculus of the adult rat spinal cord and examined neurite outgrowth of these transplanted neurons within the white matter that is largely composed of myelinated axons (26).
26. Intra white matter transplantation of CGNs. P7 CGN (50,000 cells/ml) were prelabeled with Cell Tracker CM-DiI (1 mM; Molecular Probes, Eugene, Oreg.), pretreated with PBS or 50 nM Gö6976, and microinjected at the level of T9 into the spinal cord ventral funiculus of adult Sprague-Dawley rats ([…]; N=3 for each group). Two pieces of 2 mm^3 gelfoam (Pharmacia & Upjohn, Kalamazoo, Mich.) soaked with PBS or 500 nM Gö6976 were placed onto the spinal dura where the penetration for cell injection occurred. Spinal cords (8 mm in length centered around the CGN injection site) were collected 2 weeks after surgery, and […] sagittal sections were made. DiI positive CGNs were examined with a fluorescent microscope (Omega XF-32 optical filter) in all sections of each cord to evaluate cell survival (27). Percentages of the neurite-bearing CGNs and CGNs with neurites longer than twice the soma length were quantified among 400 CGNs from a single […] of each cord that had the highest number of neurite-bearing CGNs.

[9] = tested on: neurons on CSPG substrate; assay: neurite outgrowth on CSPG substrate; format: cell-based, rat
From the text: We examined whether PKC is involved in the inhibitory activity of CSPG, the other major inhibitory activity associated with glial scars in the adult CNS.

[10] = tested on: CGNs, DRG sensory neurons or NG108 cells on immobilized CNS myelin; settings: previously shown; cited from earlier work
[11] = tested on: NG108 cells or cerebellar granule neurons (CGN) on immobilized recombinant MAG; assay: neurite outgrowth assay on immobilized recombinant MAG; format: cell-based, rat
Experimental: as §1

[12] = NG-108 cells, 10 (unit uncertain)

Compound: calphostin C
neurite outgrowth inhibition induced by MAG, Nogo-A and OMgp [1]: efficiently overcame neurite outgrowth inhibition
neurite outgrowth on immobilized CNS myelin [2]: profoundly affected neurite outgrowth by enhancing both the number of neurite-bearing cells and the length of neurites
neurite outgrowth on a CNS myelin substrate ([2]; P7-9 rat CGNs): profoundly mitigated outgrowth inhibition and promoted significant neurite outgrowth

Compound: CC1CNCCN1S(=O)(=O)c1cccc2cnccc12 (racemic) [compound 542, (+−)-1-(5-Isoquinolinesulfonyl)-2-methylpiperazine dihydrochloride]
IC50 [3]: 6 µM

Compound: O=S(=O)(c1cccc2cnccc12)N1CCNCC1 [compound 543, 1-(5-Isoquinolinesulfonyl)piperazine]
IC50 [3]: 6 µM

Compound: COc1ccc2c(c1)CC[C@@H]1[C@@H]2CC[C@]2(C)[C@@H](NCCCCCCN3C(=O)C=CC3=O)CC[C@@H]12 [U73122]
toxicity to cells [4]: appeared toxic

Compound: Nc1nc2c(nc(Br)n2[C@@H]2O[C@@H]3COP(O)(=S)O[C@H]3[C@H]2O)c(=O)[nH]1 (some centres unmarked) [Rp-8-Br-cGMPS]
neurite outgrowth on CNS myelin substrate ([2]; P7-9 rat CGNs): failed to overcome the inhibitory effects of CNS myelin

Compound: Nc1ncnc2c1ncn2[C@@H]1O[C@@H]2COP(O)(=S)O[C@H]2[C@H]1O (some centres unmarked) [sp-cAMP]
neurite outgrowth on immobilized CNS myelin [2]: stimulated neurite outgrowth

Compound: CCCCCCCCCCCCCC(=O)O[C@@H]1[C@@H](C)[C@@]2(O)[C@@H](C=C(CO)C[C@]3(O)C(=O)C(C)=C[C@@H]23)[C@@H]2C(C)(C)[C@]12OC(C)=O [PMA, phorbol myristate-13-acetate]
neurite outgrowth from untransfected cells and wild type Akt transfected cells [5]: did not result in significant alterations in neurite outgrowth
neurite outgrowth promoting activity of active Akt in CGNs ([5]; CGNs): abolished the neurite outgrowth promoting activity of active Akt
neurite outgrowth from NG108 cells expressing dominant negative Akt ([5]; PDL substrate, 100 nM): resulted in inhibition of neurite outgrowth

Compound: Cn1c2ccccc2c2c3c(c4c5ccccc5n(CCC#N)c4c21)CNC3=O [Gö6976]
regeneration of CTB-labeled dorsal column axons across the lesion ([6]; 20 uM intrathecal, 0.5 ul/hr for 14 days, five weeks after surgery): CTB-labeled axons were seen to cross the lesion gap and grow within the distal host spinal cord for a considerable distance
distance distal to the injury at which many regenerated axons ended ([6]; 20 uM intrathecal, 0.5 ul/hr for 14 days, longest distance examined): 7 mm
functional connections and recovery ([6]; subsequent studies): improves physiological and behavioral recovery
MAG-Fc, AP-Nogo-66 and CSPG induced RhoA activation [7]: blocked MAG-Fc, AP-Nogo-66 and CSPG induced RhoA activation in a dose dependent manner
neurite outgrowth inhibition induced by MAG, Nogo-A and OMgp [1]: efficiently overcame neurite outgrowth inhibition
neurite outgrowth on immobilized CNS myelin [2]: profoundly affected neurite outgrowth by enhancing both the number of neurite-bearing cells and the length of neurites
neurite outgrowth on a CNS myelin substrate ([2]; P7-9 rat CGNs): profoundly mitigated outgrowth inhibition and promoted significant neurite outgrowth
donor neurons bearing neurites [8]: 85%
neurite-bearing neurons with neurites longer than twice their soma diameters [8]: 80%

effect on CSPG substrate relative to chondroitinase ABC [9]: stronger effects than chondroitinase ABC
Compound: C[C@@H](N)[C@H]1CC[C@H](C(=O)Nc2ccncc2)CC1 [Y-27632]
neurite outgrowth from neurons on CSPG substrate [9]: allowed the cultured neurons to overcome the inhibitory activity of CSPG
block of the inhibitory activity of CNS myelin and its components [10]: block the inhibitory activity of CNS myelin and its components

Compound: bisindolylmaleimide [GFX]
neurite outgrowth on immobilized CNS myelin [2]: profoundly affected neurite outgrowth by enhancing both the number of neurite-bearing cells and the length of neurites
neurite outgrowth from untransfected cells and wild type Akt transfected cells [5]: did not result in significant alterations in neurite outgrowth
process extension of constitutively active Akt expressing NG108 cells ([5]; PDL substrate, 5 (unit uncertain)): the majority of constitutively active Akt expressing NG108 cells extended processes

Compound: CC(NC(=O)C(NC(=O)OCc1ccccc1)C(C)C)C(=O)NC(CC(=O)O)C(=O)CF (stereo not drawn) [ZVAD] (Cbz-Val-Ala-Asp-CH2F; configuration not given here)
cell survival [5, 12]: enhancing cell survival
effect on pro-growth effect of dominant negative Akt [5, 12]: did not affect the pro-growth effect of the dominant negative form of Akt

Compound: N#CC(=C(/N)Sc1ccccc1N)/C(C#N)=C(\N)Sc1ccccc1N [U0126]
neurite outgrowth on the MAG substrate [11]: promoted neurite outgrowth
